Data reported in ChEMBL document CHEMBL1139380, “Edaravone derivatives containing NO-donor functions” (J Med Chem, 2009).
Calls of active or inactive are those of the source. The calls are words filed in the database; no cut-off is given here.

Tests used:
[1] = physchem; settings: octanol/water
Description: Lipophilicity, neutral log P of the compound

[2] = test system: Liver microsomes
Description: Antioxidant activity against Fe2SO4/ascorbate-induced lipid peroxidation in Wistar rat liver microsomal membrane by TBARS assay

[3] = test system: Aorta; assay: tissue or blood; settings: Rattus norvegicus, Wistar
Description: (§1) Vasodilation activity in Wistar rat aorta assessed as relaxation of phenylephrine-induced contraction

[4] = physchem
Description: Dissociation constant, pKa by potentiometric titration

[5] = octanol/water
Description: Lipophilicity, ionic log P by shake flask method

[6] = physchem; settings: octanol/water, pH 7.4
[7] = test system: Liver microsomes; assay: Antioxidant activity against […]/ascorbate-induced lipid peroxidation in Wistar rat liver microsomal membrane at 05 to 15 uM by TBARS assay; assay type: functional; settings: Microsome
[8] = test system: Aorta
Description: as §1

Row | SMILES | logP [1] | IC50 [2] | EC50 [3] | pKa [4] | logPi [5] | logD [6] | Activity [7] | EC50 [8]
1 | CC1=NN(c2ccc(OCc3no[n+]([O-])c3C#N)cc2)C(=O)C1 | 1.72 | 5800 nM | 23 nM | 7.06 | -0.99 | 1.28 |  | 
2 | CC1=NN(c2ccc(OCCCOc3no[n+]([O-])c3S(=O)(=O)c3ccccc3)cc2)C(=O)C1 | 3.62 | 3800 nM | 77 nM | 7.12 | 0.4 | 3.16 |  | 
3 | COCCCCCCO[N+](=O)[O-] | 2.23 |  | 1400 nM |  |  |  | inactive | 
4 | CC1=NN(c2ccc(OCc3no[n+]([O-])c3C(N)=O)cc2)C(=O)C1 | 0.92 | 7900 nM | 2800 nM | 7.08 |  | 0.48 |  | 
5 | COc1no[n+]([O-])c1-c1ccccc1 | 2.47 |  | 5600 nM |  |  |  | inactive | 
6 | COCc1no[n+]([O-])c1C(N)=O | 0.14 |  | 3900 nM |  |  |  | inactive | 
7 | COc1ccc(N2N=C(C)CC2=O)cc1 | 1.19 | 20000 nM |  | 7.06 |  | 0.77 |  | Not Active
8 | CC1=NN(c2ccc(OCCCCC(CO[N+](=O)[O-])O[N+](=O)[O-])cc2)C(=O)C1 (stereo not drawn) | 3.1 | 2900 nM | 680 nM | 7.15 | 0.05 | 2.54 |  | 
9 | COCc1no[n+]([O-])c1C#N | 0.83 |  | 9.5 nM |  |  |  | inactive | 
10 | CC1=NN(c2ccc(OCCCO[N+](=O)[O-])cc2)C(=O)C1 | 1.9 | 3400 nM | 1100 nM | 7.11 | -1.07 | 1.59 |  | 
11 | CC1=NN(c2ccc(OCCCCCCO[N+](=O)[O-])cc2)C(=O)C1 | 3.34 | 2100 nM | 980 nM | 7.12 | 0.15 | 2.67 |  | 
12 | CCOc1no[n+]([O-])c1S(=O)(=O)c1ccccc1 | 3.15 |  | 12 nM |  |  |  | inactive | 
13 | CC1=NN(c2ccccc2)C(=O)C1 [EDARAVONE] | 1.28 | 17000 nM |  | 6.9 |  | 0.78 |  | Not Active
14 | COCCCO[N+](=O)[O-] | 1.01 |  | 9600 nM |  |  |  | inactive | 
